According to ChEMBL document CHEMBL1122917, “Vinblastin-23-oyl amino acid derivatives: chemistry, physicochemical data, toxicity, and antitumor activities against P388 and L1210 leukemias” (J Med Chem, 1985):

Experiments:
Type in all cases: functional
[1] = system: Mus musculus; test: Number of survivors on 30th day at dose 5 mg/kg/day in 9 mice implanted with P388 leukemia cell line; 1/9
[2] = system: Mus musculus; test: Number of survivors on 60th day at dose 6 mg/kg/day in 9 mice implanted with P388 leukemia cell line; 0/10
[3] = system: Mus musculus; test: Number of survivors on 30th day at dose 8 mg/kg/day in 9 mice implanted with P388 leukemia cell line; 0 /9
[4] = system: Mus musculus; test: Number of survivors of DBA2 mice on 30th day after inoculation with L1210 leukemia cell line intraperitoneally at a dose of 4 mg/kg/day; 0/10; conditions: route intraperitoneal
[5] = system: Mus musculus; test: Number of survivors on 60th day at dose 10 mg/kg/day in 10 mice implanted with P388 leukemia cell line; 0/10
[6] = system: Mus musculus; test: Number of survivors of DBA2 mice on 60th day after inoculation with L1210 leukemia cell line intraperitoneally at a dose of 0.33 mg/kg/day; 0/10; conditions: route intraperitoneal
[7] = system: Mus musculus; test: Number of survivors on 60th day at dose 56 mg/kg/day in 10 mice implanted with P388 leukemia cell line; 2/10
[8] = system: Mus musculus; test: Number of survivors on 60th day at dose 2.5 mg/kg/day in 10 mice implanted with P388 leukemia cell line; 0/10
[9] = system: Mus musculus; test: Number of survivors on 30th day at dose 3 mg/kg/day in 10 mice implanted with P388 leukemia cell line; 0/9
[10] = system: Mus musculus; test: Number of survivors on 60th day at dose 1 mg/kg/day in 10 mice implanted with P388 leukemia cell line; 0/10
[11] = system: Mus musculus; test: Percent increase in life span of DBA2 mice after inoculation with L1210 leukemia intravenously at a dose of 1 mg/kg per day; conditions: route intravenous
[12] = system: Mus musculus; test: Number of survivors of DBA2 mice on 30th day after inoculation with L1210 leukemia cell line intraperitoneally at a dose of 1 mg/kg/day; 0/10; conditions: route intraperitoneal
[13] = system: Mus musculus; test: Number of survivors of DBA2 mice on 60th day after inoculation with L1210 leukemia cell line intraperitoneally at a dose of 2.7 mg/kg/day; 0/10; conditions: route intraperitoneal

Compound `CCOC(=O)[C@@H](NC(=O)[C@@]1(O)[C@H](O)[C@]2(CC)C=CCN3CC[C@@]4(c5cc([C@@]6(C(=O)OC)C[C@H]7C[N@](CCc8c6[nH]c6ccccc86)C[C@](O)(CC)C7)c(OC)cc5N(C)[C@@]14C)[C@@H]32)[C@@H](C)CC` has a Survivors [1] of 1 and a Survivors [2] of 0.

Work on `CC[C@]1(O)C[C@@H]2CN(CCc3c([nH]c4ccccc34)[C@@](C(=O)OC)(c3cc4c(cc3OC)N(C)[C@H]3[C@@](O)(C(=O)OC)[C@H](OC(C)=O)[C@]5(CC)C=CCN6CC[C@]43[C@@H]65)C2)C1` [VINBLASTINE] yielded a Survivors [3] of 0, a Survivors [4] of 0 and a Survivors [5] of 0. It also gave a Survivors [6] of 0.

`CCOC(=O)[C@H](Cc1c[nH]c2ccccc12)NC(=O)[C@@]1(O)[C@H](O)[C@]2(CC)C=CCN3CC[C@@]4(c5cc([C@@]6(C(=O)OC)C[C@H]7C[N@](CCc8c6[nH]c6ccccc86)C[C@](O)(CC)C7)c(OC)cc5N(C)[C@@]14C)[C@@H]32` gave a Survivors [7] of 2.

Work on `CC[C@]1(O)C[C@@H]2CN(CCc3c([nH]c4ccccc34)[C@@](C(=O)OC)(c3cc4c(cc3OC)N(C)[C@H]3[C@@](O)(C(N)=O)[C@H](O)[C@]5(CC)C=CCN6CC[C@]43[C@@H]65)C2)C1` [VINDESINE] yielded a Survivors [8] of 0 and a Survivors [9] of 0.

With `CC[C@]1(O)C[C@H]2CN(CCc3c([nH]c4ccccc34)[C@@](C(=O)OC)(c3cc4c(cc3OC)N(C=O)[C@H]3[C@@](O)(C(=O)OC)[C@H](OC(C)=O)[C@]5(CC)C=CCN6CC[C@]43[C@@H]65)C2)C1` [VINCRISTINE] the Survivors [10] was 0, the ILS at 1 mg/kg/day [11] was 10.7% and the Survivors [12] was 0. For the same compound, the Survivors [13] was 0.
